According to ChEMBL document CHEMBL1147543, “Styrylheterocycles as a novel class inhibitor of cyclooxygenase-2-mediated prostaglandin E(2) production” (Bioorg Med Chem Lett, 2004):

Each compound was assayed on RAW264.7 (assay: Inhibitory effect on PGE-2 production in LPS-stimulated RAW264.7 cells). Details: Mus musculus.
Assay type: functional, cell-based

IC50 [µM] | Compound
7.4 | COc1cc(/C=C/c2cc(OC)c(OC)cc2OC)cc(OC)c1
4 | Oc1ccc(/C=C/c2cc(O)cc(O)c2)cc1 [RESVERATROL]
> 33.3 | COc1cc(/C=C/c2cc(OC)cc(OC)c2)cc(OC)c1
